The values that follow come from patent US20250026762A1, “FUSED PYRAZOLE UREA ANALOGS AS GLUCOSYLCERAMIDE SYNTHASE INHIBITORS” (Merck Sharp & Dohme LLC, priority 2021, published 2025).

For assay [1], the system named is GD and PD patient-derived induced pluripotent stem cell (iPSC) neurons. The settings on record: Zunke, F. et al., Neuron 2018; cited from earlier work.
The target in assay [2] is glucosylceramide synthase (GCS) enzyme in Golgi preparations from human A375 malignant melanoma skin cells (Homo sapiens (Human), UniProt Q16739). Put plainly: UDP-Glo glucosylceramide synthase biochemical assay. The settings on record: 1.5 μg crude golgi preparation; C6 ceramide and UDP-glucose at 2×Km; 20 h incubation at room temperature; luminescence. An excerpt:
UDP-Glo™ Glucosylceramide Synthase Biochemical Assay
A UDP-Glo™ glucosylceramide synthase biochemical assay was utilized to evaluate the effect of test compounds on the activity of endogenous levels of GCS enzyme contained within Golgi preparations isolated from human A375 malignant melanoma skin cells. The UDP-Glo™ glucosylceramide synthase assay uses UDP-Glucose as a nucleotide-glycosyl donor and ceramide as substrate acceptor molecules. In the reaction, glucosylceramide synthase (GCS) transfers glucose from UDP-Glucose to ceramide. Glucosylceramide and UDP are released as products.
Using Promega's UDP-Glo™ Glycosyltransferase assay kit (Promega Corporation, Madison, WI, USA (Promega)), GCS activity was indirectly measured by detecting the amount of UDP produced. An aliquot of GCS enzyme (1.5 μg crude golgi preparation, total protein) and titrated test compound were aliquoted to each well and incubated for 30 minutes at room temperature. Substrate mixture was prepared by mixing C6 ceramide (Avanti Polar Lipids, Alabaster, AL USA (Avanti)) (micelles prepared at 0.6 mM in 0.6 mM DOPC) and UDP-glucose (20 μM; Promega), at concentrations equivalent to 2×Km, in assay buffer (25 mM HEPES (pH 7.5), 50 mM KCl, 5 mM MgCl2). An equivalent volume of substrate mixture was then added to each well. Following a 20 h incubation at room temperature to allow for GCS turnover of substrate, an equal volume of UDP detection reagent (Promega) was added to each well and incubated for an additional 75 minutes at room temperature to simultaneously convert the accumulated UDP product into ATP and generate light in a luciferase reaction. The generated light was detected using a luminometer. […] luminescence values (RLUs) were normalized to mean “min” and “max” effects, as determined on each plate. “Min” was defined as the mean of the values of the wells treated with vehicle (DMSO) and which represent 0% inhibition; “max” was defined as the mean of the values of the wells treated with a reference inhibitor and which represent the 100% effect. Values for % Emax and EC50 were determined by best-fitting the normalized data to a curve in Activity Base along a four-parameter logistic nonlinear regression (4PL) model (based on the Levenberg-Marquardt algorithm and defined by the equation below): […]
where: n is 4PMin (bottom of the curve); m is 4PMax (top of the curve); i is IP (inflection point of curve); andp is slope. See Levenberg, K., “A Method for the Solution of Certain Problems in Least Squares”, Quart. Appl. Math. 2, (1944), pp 164-168 and Marquardt, D., “An Algorithm for Least Squares Estimation on Nonlinear Parameters”, SIAM J. Appl. Math. 11, (1963) pp 431-441.

pEC50: −log10 of the molar value.

glucosylceramide synthase (GCS) enzyme in Golgi preparations from human A375 malignant melanoma skin cells, sequence (Q16739 whole entry): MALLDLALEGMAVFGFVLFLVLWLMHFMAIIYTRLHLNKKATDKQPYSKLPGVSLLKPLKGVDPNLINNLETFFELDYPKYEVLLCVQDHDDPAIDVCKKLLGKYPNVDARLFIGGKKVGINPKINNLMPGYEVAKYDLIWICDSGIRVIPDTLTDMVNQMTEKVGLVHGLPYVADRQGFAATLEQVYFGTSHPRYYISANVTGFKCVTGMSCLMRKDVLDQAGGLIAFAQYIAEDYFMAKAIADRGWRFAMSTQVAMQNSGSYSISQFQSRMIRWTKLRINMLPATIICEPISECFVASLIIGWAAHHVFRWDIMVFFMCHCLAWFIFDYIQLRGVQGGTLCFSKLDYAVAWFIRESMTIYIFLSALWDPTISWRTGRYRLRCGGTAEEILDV

With `CCCCCCCC(=O)N[C@H](CN1CCCC1)[C@H](O)c1ccc2c(c1)OCCO2` [eliglustat, Eliglustat], in assay [1], the “formation of pathological α-synuclein aggregates” value is recorded as “reverse the formation of pathological α-synuclein aggregates”.
`O=C(N1CCN2CCC1CC2)n1nc(-c2ccc(OC(F)F)c(Cl)c2)c2c1COCC2` [Compound 2, 1,4-diazabicyclo[3.2.2]nonan-4-yl(3-(3-chloro-4-(difluoromethoxy)phenyl)-4,5-dihydropyrano[3,4-c]pyrazol-1(7H)-yl)methanone] gave a pEC50 in assay [2] of 8.54.
`O=C(N1CCN2CCC1CC2)n1nc(C2=CCCC2)c2c1CCC2` [Compound 37, [3-(cyclopenten-1-yl)-5,6-dihydro-4H-cyclopenta[c]pyrazol-1-yl]-(1,4-diazabicyclo[3.2.2]nonan-4-yl)methanone] had a pEC50 in assay [2] of 8.44.
Compound `CC1CCc2c(-c3ccc(F)cc3)nn(C(=O)N3CCN4CCC3CC4)c21` (single isomer, unassigned) [Compound 16, R or S-(1,4-diazabicyclo[3.2.2]nonan-4-yl)(3-(4-fluorophenyl)-6-methyl-5,6-dihydrocyclopenta[c]pyrazol-1(4H)-yl)methanone] showed a pEC50 in assay [2] of 9.40.
`O=C(N1CCN2CCC1CC2)n1nc(-c2cccc(Cl)c2F)c2c1COCC2` [Compound 27]: in assay [2], the pEC50 is 8.80.
Compound `O=C(N1CCN2CCC1CC2)n1nc(-n2cc(Cl)cn2)c2c1CCOC2` [Compound 60, (1,4-diazabicyclo[3.2.2]nonan-4-yl)(3-(4-chloro-1H-pyrazol-1-yl)-6,7-dihydropyrano[4,3-c]pyrazol-1(4H)-yl)methanone] had a pEC50 in assay [2] of 8.32.
For `O=C(N1CCN2CCC1CC2)n1nc(-c2ccc(C(F)(F)F)cc2)c2c1COCC2` [Compound 30, (1,4-diazabicyclo[3.2.2]nonan-4-yl)(3-(4-(trifluoromethyl)phenyl)-4,7-dihydropyrano[3,4-c]pyrazol-1(5H)-yl)methanone], the pEC50 in assay [2] was 8.57.
On the same count and under the same terms, to `O=C(N1CCN2CCC1CC2)n1nc(-c2ccc(F)cc2)c2c1CC(O)C2` (stereo not drawn) [Compound 21, R and S-(1,4-diazabicyclo[3.2.2]nonan-4-yl)(3-(4-fluorophenyl)-5-hydroxy-5,6-dihydrocyclopenta[c]pyrazol-1(4H)-yl)methanone] belongs 7.71; to `COc1ccc(-c2nn(C(=O)N3CCN4CCC3CC4)c3c2CCC3)cc1` [Compound 4, 1,4-diazabicyclo[3.2.2]nonan-4-yl-[3-(4-methoxyphenyl)-5,6-dihydro-4H-cyclopenta[c]pyrazol-1-yl]methanone], 9.70.
With `COc1nccc(-c2nn(C(=O)N3CCN4CCC3CC4)c3c2CCC3)c1Cl` [Compound 40, [3-(3-chloro-2-methoxy-4-pyridyl)-5,6-dihydro-4H-cyclopenta[c]pyrazol-1-yl]-(1,4-diazabicyclo[3.2.2]nonan-4-yl)methanone], the pEC50 in assay [2] was 8.92.
The same measure, in the same setting: to `O=C(N1CCN2CCC1CC2)n1nc(-n2nc(C(F)(F)F)ccc2=O)c2c1CCOC2` [Compound 25, 2-(1-(1,4-diazabicyclo[3.2.2]nonane-4-carbonyl)-1,4,6,7-tetrahydropyrano[4,3-c]pyrazol-3-yl)-6-(trifluoromethyl)pyridazin-3(2H)-one] belongs 7.57; to `O=C(N1CCN2CCC1CC2)n1nc(C2=CCC(F)(F)CC2)c2c1COCC2` [Compound 35, (1,4-diazabicyclo[3.2.2]nonan-4-yl)(3-(4,4-difluorocyclohex-1-en-1-yl)-4,7-dihydropyrano[3,4-c]pyrazol-1(5H)-yl)methanone], 7.41.

One may read the pEC50 as the negative decadic logarithm of the EC50, by convention in mol/L. Higher therefore signals a low EC50.
